Results from PubChem BioAssay (NCI).
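Grown in 96-well plates, cells were treated for 48 hours with each compound at five concentrations. Insufficient inhibition: endpoint recorded as highest concentration tested. Abbreviation: GI50, concentration required for 50% inhibition of growth. TGI: total growth inhibition.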

Key:
Assay in all cases: inhibition of tumour cell growth, NCI panel, 48 h
K-562 leukemia = tested on: K-562 leukemia
EKVX NSCLC = tested on: EKVX NSCLC
HT29 colon = tested on: HT29 colon
OVCAR-8 ovarian = tested on: OVCAR-8 ovarian
UACC-62 melanoma = tested on: UACC-62 melanoma
SN12C renal = tested on: SN12C renal
LOX IMVI melanoma = tested on: LOX IMVI melanoma
COLO 205 colon = tested on: COLO 205 colon
ACHN renal = tested on: ACHN renal
SW-620 colon = tested on: SW-620 colon

`Cc1ccc(N2C(=O)N(c3ccc(C)cc3)C3(SC=NN3C)C2=O)cc1` (stereo not given) was tested, and the TGI (K-562 leukemia) was > 100 µM, the TGI (EKVX NSCLC) was > 100 µM and the TGI (HT29 colon) was > 100 µM. The TGI (OVCAR-8 ovarian) was > 100 µM, the TGI (UACC-62 melanoma) was > 100 µM and the TGI (SN12C renal) was > 100 µM. For the same compound, the TGI (LOX IMVI melanoma) was > 100 µM, the TGI (COLO 205 colon) was > 100 µM and the TGI (ACHN renal) was > 100 µM. For the same compound, the TGI (SW-620 colon) was > 100 µM.
`CCOc1ccc(N=Cc2c3ccccc3nc3ccccc23)cc1` was tested, and the TGI (K-562 leukemia) was > 100 µM, the TGI (EKVX NSCLC) was > 100 µM and the TGI (HT29 colon) was > 100 µM. For the same compound, the TGI (OVCAR-8 ovarian) was > 100 µM, the TGI (UACC-62 melanoma) was > 100 µM and the TGI (SN12C renal) was > 100 µM. For the same compound, the TGI (LOX IMVI melanoma) was > 100 µM, the TGI (COLO 205 colon) was > 100 µM and the TGI (ACHN renal) was > 100 µM. The TGI (SW-620 colon) was > 100 µM.
In the case of `CC1=NC(C)(COC(=O)C2(C)NC(C)(CO)CO2)COC1=O` (stereo not given), the TGI (K-562 leukemia) is reported as > 100 µM, the TGI (EKVX NSCLC) is reported as > 100 µM and the TGI (HT29 colon) is reported as > 100 µM. For the same compound, the TGI (OVCAR-8 ovarian) was > 100 µM, the TGI (UACC-62 melanoma) was > 100 µM and the TGI (SN12C renal) was > 100 µM. The TGI (LOX IMVI melanoma) was > 100 µM, the TGI (COLO 205 colon) was > 100 µM and the TGI (ACHN renal) was > 100 µM. The TGI (SW-620 colon) was > 100 µM.
In the case of `NC(=O)c1cn(Cc2ccccc2)c(=O)n1Cc1ccccc1`, the TGI (K-562 leukemia) is reported as > 100 µM, the TGI (EKVX NSCLC) is reported as > 100 µM and the TGI (HT29 colon) is reported as > 100 µM. For the same compound, the TGI (OVCAR-8 ovarian) was > 100 µM, the TGI (UACC-62 melanoma) was > 100 µM and the TGI (SN12C renal) was > 100 µM. For the same compound, the TGI (LOX IMVI melanoma) was > 100 µM, the TGI (COLO 205 colon) was > 100 µM and the TGI (ACHN renal) was > 100 µM. For the same compound, the TGI (SW-620 colon) was > 100 µM.
For `COc1ccc2nc3cc(Cl)ccc3c(Sc3ccc(NC(C)=O)cc3)c2c1`, the TGI (K-562 leukemia) was > 100 µM, the TGI (EKVX NSCLC) was > 23.8 µM and the TGI (HT29 colon) was > 100 µM. For the same compound, the TGI (OVCAR-8 ovarian) was > 21.1 µM, the TGI (UACC-62 melanoma) was > 42.1 µM and the TGI (SN12C renal) was > 25.6 µM. For the same compound, the TGI (LOX IMVI melanoma) was 11.4 µM, the TGI (COLO 205 colon) was > 34.2 µM and the TGI (ACHN renal) was 18.7 µM. For the same compound, the TGI (SW-620 colon) was > 22.3 µM.
With `COC(=O)C(=O)CC(=O)c1cccc(OC)c1` the TGI (K-562 leukemia) was > 100 µM, the TGI (EKVX NSCLC) was > 100 µM and the TGI (HT29 colon) was > 100 µM. For the same compound, the TGI (OVCAR-8 ovarian) was > 100 µM, the TGI (UACC-62 melanoma) was > 100 µM and the TGI (SN12C renal) was > 100 µM. The TGI (LOX IMVI melanoma) was > 100 µM, the TGI (COLO 205 colon) was > 100 µM and the TGI (ACHN renal) was > 100 µM. For the same compound, the TGI (SW-620 colon) was > 100 µM.
In the case of `O=[N+]([O-])c1ccc(Sc2c3ccccc3nc3ccccc23)cn1`, the TGI (K-562 leukemia) is reported as 6.66 µM, the TGI (EKVX NSCLC) is reported as > 86.2 µM and the TGI (HT29 colon) is reported as 28 µM. For the same compound, the TGI (OVCAR-8 ovarian) was 52.5 µM, the TGI (UACC-62 melanoma) was 35 µM and the TGI (SN12C renal) was 43.2 µM. The TGI (LOX IMVI melanoma) was 26.9 µM, the TGI (COLO 205 colon) was 10.4 µM and the TGI (ACHN renal) was 17.4 µM. The TGI (SW-620 colon) was > 57.4 µM.
In the case of `NCCN.O=C([O-])[O-].O=C([O-])[O-].[Co+3].[K+]`, the GI50 (K-562 leukemia) is reported as > 100000 nM, the TGI (K-562 leukemia) is reported as > 100 µM and the GI50 (EKVX NSCLC) is reported as > 100 µM. For the same compound, the TGI (EKVX NSCLC) was > 100 µM, the GI50 (HT29 colon) was > 100 µM and the TGI (HT29 colon) was > 100 µM. The GI50 (OVCAR-8 ovarian) was > 100 µM, the TGI (OVCAR-8 ovarian) was > 100 µM and the GI50 (UACC-62 melanoma) was > 100000 nM. For the same compound, the TGI (UACC-62 melanoma) was > 100 µM, the GI50 (SN12C renal) was > 100000 nM and the TGI (SN12C renal) was > 100 µM. For the same compound, the GI50 (LOX IMVI melanoma) was > 100000 nM, the TGI (LOX IMVI melanoma) was > 100 µM and the GI50 (COLO 205 colon) was > 100 µM. The TGI (COLO 205 colon) was > 100 µM, the GI50 (ACHN renal) was > 100000 nM and the TGI (ACHN renal) was > 100 µM. The GI50 (SW-620 colon) was > 100000 nM and the TGI (SW-620 colon) was > 100 µM.
For `Oc1ccc(Oc2cnc3ccccc3n2)cc1`, the GI50 (K-562 leukemia) was > 100000 nM, the TGI (K-562 leukemia) was > 100 µM and the GI50 (EKVX NSCLC) was 67 µM. The TGI (EKVX NSCLC) was > 100 µM, the GI50 (HT29 colon) was > 100 µM and the TGI (HT29 colon) was > 100 µM. The GI50 (OVCAR-8 ovarian) was > 100 µM, the TGI (OVCAR-8 ovarian) was > 100 µM and the GI50 (UACC-62 melanoma) was > 100000 nM. For the same compound, the TGI (UACC-62 melanoma) was > 100 µM, the GI50 (SN12C renal) was > 100000 nM and the TGI (SN12C renal) was > 100 µM. The GI50 (LOX IMVI melanoma) was > 100000 nM, the TGI (LOX IMVI melanoma) was > 100 µM and the GI50 (COLO 205 colon) was > 100 µM. For the same compound, the TGI (COLO 205 colon) was > 100 µM, the GI50 (ACHN renal) was 76600 nM and the TGI (ACHN renal) was > 100 µM. For the same compound, the GI50 (SW-620 colon) was > 100000 nM and the TGI (SW-620 colon) was > 100 µM.
For `COc1cc2c3c(n(CCCN(C)CCO)c(=O)c2cc1OC)-c1cc2c(cc1C3=O)OCO2`, the GI50 (K-562 leukemia) was 439 nM, the TGI (K-562 leukemia) was 54.7 µM and the GI50 (EKVX NSCLC) was > 44.4 µM. The TGI (EKVX NSCLC) was > 100 µM, the GI50 (HT29 colon) was 9.06 µM and the TGI (HT29 colon) was > 75.2 µM. For the same compound, the GI50 (OVCAR-8 ovarian) was 13.9 µM, the TGI (OVCAR-8 ovarian) was > 78.8 µM and the GI50 (UACC-62 melanoma) was 1540 nM. The TGI (UACC-62 melanoma) was 24.7 µM, the GI50 (SN12C renal) was 2750 nM and the TGI (SN12C renal) was > 100 µM. The GI50 (LOX IMVI melanoma) was 709 nM, the TGI (LOX IMVI melanoma) was 13.9 µM and the GI50 (COLO 205 colon) was 12.6 µM. For the same compound, the TGI (COLO 205 colon) was > 100 µM, the GI50 (ACHN renal) was 277 nM and the TGI (ACHN renal) was 4.33 µM. For the same compound, the GI50 (SW-620 colon) was 879 nM and the TGI (SW-620 colon) was > 55.2 µM.
`COc1ccc(-c2cc(Nc3ccnc(N4CCOCC4)n3)on2)cc1` was tested, and the GI50 (K-562 leukemia) was 47 nM, the TGI (K-562 leukemia) was 20.9 µM and the GI50 (EKVX NSCLC) was 0.685 µM. It also gave a TGI (EKVX NSCLC) of 17 µM, a GI50 (HT29 colon) of 0.243 µM and a TGI (HT29 colon) of 11.5 µM. The GI50 (OVCAR-8 ovarian) was 0.443 µM, the TGI (OVCAR-8 ovarian) was 11.4 µM and the GI50 (UACC-62 melanoma) was 115 nM. The TGI (UACC-62 melanoma) was 15.9 µM, the GI50 (SN12C renal) was 700 nM and the TGI (SN12C renal) was 16.6 µM. The GI50 (LOX IMVI melanoma) was 353 nM, the TGI (LOX IMVI melanoma) was 15.3 µM and the GI50 (COLO 205 colon) was 0.239 µM. It also gave a TGI (COLO 205 colon) of 1.53 µM, a GI50 (ACHN renal) of 740 nM and a TGI (ACHN renal) of 13.6 µM. For the same compound, the GI50 (SW-620 colon) was 91.4 nM and the TGI (SW-620 colon) was 18.5 µM.
In the case of `CC(=O)NC1CONC1=O` (stereo not given), the TGI (K-562 leukemia) is reported as > 100 µM, the TGI (EKVX NSCLC) is reported as > 100 µM and the TGI (HT29 colon) is reported as > 100 µM. For the same compound, the TGI (OVCAR-8 ovarian) was > 100 µM, the TGI (UACC-62 melanoma) was > 100 µM and the TGI (SN12C renal) was > 100 µM. The TGI (LOX IMVI melanoma) was > 100 µM, the TGI (COLO 205 colon) was > 100 µM and the TGI (ACHN renal) was > 100 µM. The TGI (SW-620 colon) was > 100 µM.
With `CC12CCC(=O)N1c1cccnc1N2` (stereo not given) the TGI (K-562 leukemia) was > 100 µM, the TGI (EKVX NSCLC) was > 100 µM and the TGI (HT29 colon) was > 100 µM. The TGI (OVCAR-8 ovarian) was > 100 µM, the TGI (UACC-62 melanoma) was > 100 µM and the TGI (SN12C renal) was > 100 µM. The TGI (LOX IMVI melanoma) was > 100 µM, the TGI (COLO 205 colon) was > 100 µM and the TGI (ACHN renal) was > 100 µM. The TGI (SW-620 colon) was > 100 µM.
For `CC(C)(C)c1cc(C(=O)/C=C/c2ccc(C(=O)O)cc2)cc(C(C)(C)C)c1`, the TGI (K-562 leukemia) was > 100 µM, the TGI (EKVX NSCLC) was 16.9 µM and the TGI (HT29 colon) was 13.2 µM. It also gave a TGI (OVCAR-8 ovarian) of 7.13 µM, a TGI (UACC-62 melanoma) of 4.67 µM and a TGI (SN12C renal) of 6.6 µM. It also gave a TGI (LOX IMVI melanoma) of 8.54 µM, a TGI (COLO 205 colon) of 4.73 µM and a TGI (ACHN renal) of 15.5 µM. The TGI (SW-620 colon) was 12.1 µM.
